# Measurements: patent publication US8524902B2, “[1,2,4]triazolo[4,3-f]pteridines useful as inhibitors of protein kinases” (Vertex Pharmaceuticals Incorporated, priority 2006, dated 2013)
# Molecular target: T1, Plk1 (Homo sapiens, UniProt P53350)
# T1 construct: in the presence of 15 nM Plk1 (A20-K338)
# Assay: Plk1 inhibition assay (radioactive-phosphate incorporation)
# Assay type: biochemical
# Conditions: Ki(app) from [γ-33P]ATP incorporation, 25° C.
# Experimental: Compounds of the present invention may be evaluated as inhibitors of human PLK kinase using the following assays.
# Compounds were screened for their ability to inhibit Plk1 using a radioactive-phosphate incorporation assay. Assays were carried out in a mixture of 25 mM HEPES (pH 7.5), 10 mM MgCl2, and 1 mM DTT. Final substrate concentrations were 50 μM [γ-33P]ATP (136 mCi 33P ATP/mmol ATP, Amersham Pharmacia Biotech/Sigma Chemicals) and 10 μM peptide (SAM68 protein Δ332-443). Assays were carried out at 25° C. in the presence of 15 nM Plk1 (A20-K338). An assay stock buffer solution was prepared containing all of the reagents listed above, with the exception of ATP and the test compound of interest. 30 μL of the stock solution was placed in a 96 well plate followed by addition of 2 μL of DMSO stock containing serial dilutions of the test compound (typically starting from a final concentration of 10 μM with 2-fold serial dilutions) in duplicate (final DMSO concentration 5%). The plate was pre-incubated for 10 minutes at 25° C. and the reaction initiated by addition of 8 μL [γ33P]ATP (final concentration 50 μM).
# (§1) The reaction was stopped after 60 minutes by the addition of 100 μL 0.14M phosphoric acid. A multiscreen phosphocellulose filter 96-well plate (Millipore, Cat no. MAPHN0B50) was pretreated with 100 μL 0.2M phosphoric acid prior to the addition of 125 μL of the stopped assay mixture. The plate was washed with 4×200 μL 0.2M phosphoric acid. After drying, 100 μL Optiphase ‘SuperMix’ liquid scintillation cocktail (Perkin Elmer) was added to the well prior to scintillation counting (1450 Microbeta Liquid Scintillation Counter, Wallac).
# After removing mean background values for all of the data points, Ki(app) data were calculated from non-linear regression analysis of the initial rate data using the Prism software package (GraphPad Prism version 3.0cx for Macintosh, GraphPad Software, San Diego Calif., USA).
# Compounds were screened for their ability to inhibit Plk1 using a radioactive-phosphate incorporation assay. Assays were carried out in a mixture of 25 mM HEPES (pH 7.5), 10 mM MgCl2, 0.1% BSA, and 2 mM DTT. Final substrate concentrations were 150 μM (350 μM for determining values of <1 nM) [γ-33P]ATP (115 mCi 33P ATP/mmol ATP, Amersham Pharmacia Biotech/Sigma Chemicals) and 300 μM (450 μM for determining values of <1 nM) peptide (KKKISDELMDATFADQEAK) SEQ. ID NO. 1. Assays were carried out at 25° C. in the presence of 4 nM (1 nM for determining values of <1 nM) Plk1. An assay stock buffer solution was prepared containing all of the reagents listed above, with the exception of ATP and the test compound of interest. 30 μL of the stock solution was placed in a 96 well plate followed by addition of 2 μL of DMSO stock containing serial dilutions of the test compound (typically starting from a final concentration of 10 μM with 2-fold serial dilutions) in duplicate (final DMSO concentration 5%). The plate was pre-incubated for 10 minutes at 25° C. and the reaction initiated by addition of 8 μl [γ-33P]ATP (final concentration 150 μM (350 μM for determining values of <1 nM))).
# as §1, with “90” for “60”, “minutes (240 minutes for determining values of <1 nM)” for “minutes”
# T1 sequence (P53350 20-338): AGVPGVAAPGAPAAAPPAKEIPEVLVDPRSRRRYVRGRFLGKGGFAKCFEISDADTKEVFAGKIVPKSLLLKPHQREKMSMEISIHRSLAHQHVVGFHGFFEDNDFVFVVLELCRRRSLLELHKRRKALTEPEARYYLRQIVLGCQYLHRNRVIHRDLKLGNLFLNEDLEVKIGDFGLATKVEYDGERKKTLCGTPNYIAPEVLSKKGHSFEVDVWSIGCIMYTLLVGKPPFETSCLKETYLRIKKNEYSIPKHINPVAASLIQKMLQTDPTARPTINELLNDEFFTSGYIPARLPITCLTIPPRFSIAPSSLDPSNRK
row,Compound,Ki [µM]
1,"CC[C@@H]1c2nncn2-c2cnc(Nc3ccc(C(F)(F)F)nc3)nc2N1C1CCCC1 [Compound I-40, (R)-5-cyclopentyl-4-ethyl-N-(6-(trifluoromethyl)pyridin-3-yl)-4,5-dihydro-[1,2,4]triazolo[4,3-f]pteridin-7-amine]",0.01 to 0.1
2,"CC[C@@H]1c2nncn2-c2cnc(Nc3ccc(C(=O)N[C@@H]4CCOC4)cc3OC)nc2N1C1CCCC1 [Compound I-9, 4-((R)-5-cyclopentyl-4-ethyl-4,5-dihydro-[1,2,4]triazolo[4,3-f]pteridin-7-ylamino)-3-methoxy-N—((R)-tetrahydrofuran-3-yl)benzamide]",< 0.01
3,"CC[C@@H]1c2nncn2-c2cnc(Nc3ccc(C(=O)NC)cc3C(F)F)nc2N1C1CCCC1 [Compound I-24, (R)-4-(5-cyclopentyl-4-ethyl-4,5-dihydro-[1,2,4]triazolo[4,3-f]pteridin-7-ylamino)-3-(difluoromethyl)-N-methylbenzamide]",< 0.01
4,"CC[C@@H]1c2nncn2-c2cnc(Nc3ccncc3)nc2N1C1CCCC1 [Compound I-23, (R)-5-cyclopentyl-4-ethyl-N-(pyridin-4-yl)-4,5-dihydro-[1,2,4]triazolo[4,3-f]pteridin-7-amine]",< 0.01
5,"CC[C@@H]1c2nncn2-c2cnc(Nc3ccc(F)cc3)nc2N1C1CCCC1 [Compound I-35, (R)-5-cyclopentyl-4-ethyl-N-(4-fluorophenyl)-4,5-dihydro-[1,2,4]triazolo[4,3-f]pteridin-7-amine]",< 0.01
6,"CC[C@@H]1c2nncn2-c2cnc(Nc3ccc(C(=O)NC4CCN(C)CC4)cc3OC)nc2N1C1CCCC1 [Compound I-2, 4-((R)-5-cyclopentyl-4-ethyl-4,5-dihydro-[1,2,4]triazolo[4,3-f]pteridin-7-ylamino)-3-methoxy-N-(1-methylpiperidin-4-yl)benzamide]",< 0.01
7,"CC[C@@H]1c2nncn2-c2cnc(Nc3ccc(C(=O)NC4CC4)cc3OC)nc2N1C1CCCC1 [Compound I-8, (R)-4-(5-cyclopentyl-4-ethyl-4,5-dihydro-[1,2,4]triazolo[4,3-f]pteridin-7-ylamino)-N-cyclopropyl-3-methoxybenzamide]",< 0.01
8,"CC[C@@H]1c2nncn2-c2cnc(Nc3cccnc3)nc2N1C1CCCC1 [Compound I-25, (R)-5-cyclopentyl-4-ethyl-N-(pyridin-3-yl)-4,5-dihydro-[1,2,4]triazolo[4,3-f]pteridin-7-amine]",< 0.01
9,"CC[C@@H]1c2nncn2-c2cnc(Nc3ccc(C(=O)NC4CC(F)(F)C4)cc3OC)nc2N1C1CCCC1 [Compound I-17, (R)-4-(5-cyclopentyl-4-ethyl-4,5-dihydro-[1,2,4]triazolo[4,3-f]pteridin-7-ylamino)-N-(3,3-difluorocyclobutyl)-3-methoxybenzamide]",< 0.01
10,"CC[C@@H]1c2nncn2-c2cnc(Nc3ccc(C(=O)NC4CC4)s3)nc2N1C1CCCC1 [Compound I-15, (R)-5-(5-cyclopentyl-4-ethyl-4,5-dihydro-[1,2,4]triazolo[4,3-f]pteridin-7-ylamino)-N-cyclopropylthiophene-2-carboxamide]",< 0.01
11,"CCNC(=O)c1ccc(Nc2ncc3c(n2)N(C2CCCC2)[C@H](CC)c2nncn2-3)c(OC)c1 [Compound I-18, (R)-4-(5-cyclopentyl-4-ethyl-4,5-dihydro-[1,2,4]triazolo[4,3-f]pteridin-7-ylamino)-N-ethyl-3-methoxybenzamide]",< 0.01
12,"CC[C@@H]1c2nncn2-c2cnc(Nc3ccc(C(=O)NC4CCCC4)cc3OC)nc2N1C1CCCC1 [Compound I-10, (R)—N-cyclopentyl-4-(5-cyclopentyl-4-ethyl-4,5-dihydro-[1,2,4]triazolo[4,3-f]pteridin-7-ylamino)-3-methoxybenzamide]",< 0.01
13,"CC[C@@H]1c2nncn2-c2cnc(Nc3ccc(C(=O)NC)cc3OC)nc2N1C1CCC1 [Compound I-29, (R)-4-(5-cyclobutyl-4-ethyl-4,5-dihydro-[1,2,4]triazolo[4,3-f]pteridin-7-ylamino)-3-methoxy-N-methylbenzamide]",< 0.01
14,"CC[C@@H]1c2nncn2-c2cnc(Nc3ccccc3)nc2N1C1CCCC1 [Compound I-22, (R)-5-cyclopentyl-4-ethyl-N-phenyl-4,5-dihydro-[1,2,4]triazolo[4,3-f]pteridin-7-amine]",< 0.01

# Results, then the compound that gave them:
row,Ki [µM],Compound
1,< 0.01,"CC[C@@H]1c2nncn2-c2cnc(Nc3ccc(C(F)(F)F)cc3F)nc2N1C1CCCC1 [Compound I-20, (R)-5-cyclopentyl-4-ethyl-N-(2-fluoro-4-(trifluoromethyl)phenyl)-4,5-dihydro-[1,2,4]triazolo[4,3-f]pteridin-7-amine]"
2,< 0.01,"CC[C@@H]1c2nncn2-c2cnc(Nc3ccc(C(=O)N(C)C)cc3C)nc2N1C1CCCC1 [Compound I-5, 4-((R)-5-cyclopentyl-4-ethyl-4,5-dihydro-[1,2,4]triazolo[4,3]pteridin-7-ylamino)-N,N,3-trimethylbenzamide]"
3,< 0.01,"CC[C@@H]1c2nncn2-c2cnc(Nc3ccc(C(=O)NC)cc3Cl)nc2N1C1CCCC1 [Compound I-4, 4-((R)-5-cyclopentyl-4-ethyl-4,5-dihydro-[1,2,4]triazolo[4,3]pteridin-7-ylamino)-3-chloro-N-methylbenzamide]"
4,< 0.01,"CC[C@@H]1c2nncn2-c2cnc(Nc3ccc(C(=O)NC)cc3C)nc2N1C1CCCC1 [Compound I-6, 4-((R)-5-cyclopentyl-4-ethyl-4,5-dihydro-[1,2,4]triazolo[4,3]pteridin-7-ylamino)-N,3-dimethylbenzamide]"
5,< 0.01,"CC[C@@H]1c2nncn2-c2cnc(Nc3ccc(C(=O)NC)cc3C(F)(F)F)nc2N1C1CCCC1 [Compound I-21, (R)-4-(5-cyclopentyl-4-ethyl-4,5-dihydro-[1,2,4]triazolo[4,3-f]pteridin-7-ylamino)-N-methyl-3-(trifluoromethyl)benzamide]"
6,< 0.01,"CC[C@@H]1c2nncn2-c2cnc(Nc3ccc(C(=O)N4CC[C@H](F)C4)cc3OC)nc2N1C1CCCC1 [Compound I-12, (4-((R)-5-cyclopentyl-4-ethyl-4,5-dihydro-[1,2,4]triazolo[4,3-f]pteridin-7-ylamino)-3-methoxyphenyl)((S)-3-fluoropyrrolidin-1-yl)methanone]"
7,< 0.01,"CC[C@@H]1c2nncn2-c2cnc(Nc3ccc(OC(F)F)cc3)nc2N1C1CCCC1 [Compound I-33, (R)-5-cyclopentyl-N-(4-(difluoromethoxy)phenyl)-4-ethyl-4,5-dihydro-[1,2,4]triazolo[4,3-f]pteridin-7-amine]"
8,< 0.01,"CC[C@@H]1c2nnc(C)n2-c2cnc(Nc3ccc(C(=O)NC4CC4)cc3OC)nc2N1C1CCCC1 [Compound I-13, (R)-4-(5-cyclopentyl-4-ethyl-1-methyl-4,5-dihydro-[1,2,4]triazolo[4,3-f]pteridin-7-ylamino)-N-cyclopropyl-3-methoxybenzamide]"
9,< 0.01,"CC[C@@H]1c2nncn2-c2cnc(Nc3ccc(-n4cccn4)cc3)nc2N1C1CCCC1 [Compound I-39, (R)—N-(4-(1H-pyrazol-1-yl)phenyl)-5-cyclopentyl-4-ethyl-4,5-dihydro-[1,2,4]triazolo[4,3-f]pteridin-7-amine]"
10,< 0.01,"CC[C@@H]1c2nncn2-c2cnc(Nc3ccc(C(=O)NC4CC4)cc3F)nc2N1C1CCCC1 [Compound I-14, (R)-4-(5-cyclopentyl-4-ethyl-4,5-dihydro-[1,2,4]triazolo[4,3-f]pteridin-7-ylamino)-N-cyclopropyl-3-fluorobenzamide]"
11,< 0.01,"CC[C@@H]1c2nncn2-c2cnc(Nc3ccc(C(=O)NC)cc3OC)nc2N1C1CCCC1 [Compound I-1, 4-((R)-5-cyclopentyl-4-ethyl-4,5-dihydro-[1,2,4]triazolo[4,3-f]pteridin-7-ylamino)-3-methoxy-N-methylbenzamide]"
